Laboratory results as given in PubChem BioAssay (NCI).
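Assay format: 96-well plates, 48-hour exposure. GI50: concentration for 50% inhibition of growth. Definition used: TGI = concentration required for complete inhibition of growth.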

Legend:
Test in all cases: NCI anticancer screen, dose series, 48 h
HS 578T breast = system: HS 578T breast
HT29 colon = system: HT29 colon
SNB-75 CNS = system: SNB-75 CNS
UACC-62 melanoma = system: UACC-62 melanoma
NCI-H460 lung = system: NCI-H460 lung
SF-539 CNS = system: SF-539 CNS
NCI-H226 lung = system: NCI-H226 lung
K-562 leukemia = system: K-562 leukemia
SK-MEL-5 melanoma = system: SK-MEL-5 melanoma
PC-3 prostate = system: PC-3 prostate
HOP-92 NSCLC = system: HOP-92 NSCLC
RXF 393 renal = system: RXF 393 renal
T-47D breast = system: T-47D breast
IGROV1 ovarian = system: IGROV1 ovarian
EKVX NSCLC = system: EKVX NSCLC
MDA-MB-231 breast = system: MDA-MB-231 breast
A549 NSCLC = system: A549 NSCLC
SK-MEL-28 melanoma = system: SK-MEL-28 melanoma
SF-268 CNS = system: SF-268 CNS
A498 renal = system: A498 renal
HCC-2998 colon = system: HCC-2998 colon
U251 CNS = system: U251 CNS
NCI-H23 lung = system: NCI-H23 lung
NCI/ADR-RES ovarian = system: NCI/ADR-RES ovarian
SK-MEL-2 melanoma = system: SK-MEL-2 melanoma
SW-620 colon = system: SW-620 colon
MOLT-4 leukemia = system: MOLT-4 leukemia
SF-295 CNS = system: SF-295 CNS
SK-OV-3 ovarian = system: SK-OV-3 ovarian
NCI-H522 lung = system: NCI-H522 lung
SNB-19 CNS = system: SNB-19 CNS
ACHN renal = system: ACHN renal
HOP-62 NSCLC = system: HOP-62 NSCLC
OVCAR-4 ovarian = system: OVCAR-4 ovarian
MCF7 breast = system: MCF7 breast
KM12 colon = system: KM12 colon
CAKI-1 renal = system: CAKI-1 renal
OVCAR-3 ovarian = system: OVCAR-3 ovarian
HL-60(TB) leukemia = system: HL-60(TB) leukemia
M14 melanoma = system: M14 melanoma
HCT-15 colon = system: HCT-15 colon
CCRF-CEM leukemia = system: CCRF-CEM leukemia
786-0 renal = system: 786-0 renal
MALME-3M melanoma = system: MALME-3M melanoma
BT-549 breast = system: BT-549 breast
UO-31 renal = system: UO-31 renal
DU-145 prostate = system: DU-145 prostate
COLO 205 colon = system: COLO 205 colon
OVCAR-8 ovarian = system: OVCAR-8 ovarian
OVCAR-5 ovarian = system: OVCAR-5 ovarian
UACC-257 melanoma = system: UACC-257 melanoma
MDA-MB-435 = system: MDA-MB-435
SN12C renal = system: SN12C renal
HCT-116 colon = system: HCT-116 colon
RPMI-8226 leukemia = system: RPMI-8226 leukemia
TK-10 renal = system: TK-10 renal

Cn1cc(-c2cc3ncnc(Nc4ccc(NC(=O)Nc5cc(C(C)(C)C)on5)cc4)c3s2)cn1 was tested, and the GI50 (HS 578T breast) was 400 nM, the TGI (HS 578T breast) was 6550 nM and the GI50 (HT29 colon) was 631 nM. For the same compound, the TGI (HT29 colon) was 3570 nM, the GI50 (SNB-75 CNS) was 182 nM and the TGI (SNB-75 CNS) was 4430 nM. For the same compound, the GI50 (UACC-62 melanoma) was 498 nM, the TGI (UACC-62 melanoma) was 8810 nM and the GI50 (NCI-H460 lung) was 296 nM. It also gave a TGI (NCI-H460 lung) of 23800 nM, a GI50 (SF-539 CNS) of 216 nM and a TGI (SF-539 CNS) of 1870 nM. For the same compound, the GI50 (NCI-H226 lung) was 517 nM, the TGI (NCI-H226 lung) was 19700 nM and the GI50 (K-562 leukemia) was 295 nM. For the same compound, the TGI (K-562 leukemia) was > 100000 nM, the GI50 (SK-MEL-5 melanoma) was 904 nM and the TGI (SK-MEL-5 melanoma) was 2860 nM. The GI50 (PC-3 prostate) was 791 nM, the TGI (PC-3 prostate) was 13700 nM and the GI50 (HOP-92 NSCLC) was 1560 nM. For the same compound, the TGI (HOP-92 NSCLC) was 14900 nM, the GI50 (RXF 393 renal) was 307 nM and the TGI (RXF 393 renal) was 1550 nM. For the same compound, the GI50 (T-47D breast) was 513 nM, the TGI (T-47D breast) was > 29000 nM and the GI50 (IGROV1 ovarian) was 363 nM. It also gave a TGI (IGROV1 ovarian) of 21300 nM, a GI50 (EKVX NSCLC) of 1750 nM and a TGI (EKVX NSCLC) of 15000 nM. It also gave a GI50 (MDA-MB-231 breast) of 1740 nM, a TGI (MDA-MB-231 breast) of 31700 nM and a GI50 (A549 NSCLC) of 764 nM. It also gave a TGI (A549 NSCLC) of 39300 nM, a GI50 (SK-MEL-28 melanoma) of 1060 nM and a TGI (SK-MEL-28 melanoma) of 10500 nM. The GI50 (SF-268 CNS) was 1360 nM, the TGI (SF-268 CNS) was > 37200 nM and the GI50 (A498 renal) was 390 nM. It also gave a TGI (A498 renal) of 5170 nM, a GI50 (HCC-2998 colon) of 2500 nM and a TGI (HCC-2998 colon) of 11000 nM. For the same compound, the GI50 (U251 CNS) was 1450 nM, the TGI (U251 CNS) was > 40300 nM and the GI50 (NCI-H23 lung) was 764 nM. For the same compound, the TGI (NCI-H23 lung) was 6540 nM, the GI50 (NCI/ADR-RES ovarian) was 2950 nM and the TGI (NCI/ADR-RES ovarian) was > 44500 nM. The GI50 (SK-MEL-2 melanoma) was 390 nM, the TGI (SK-MEL-2 melanoma) was 2470 nM and the GI50 (SW-620 colon) was 994 nM. The TGI (SW-620 colon) was > 35600 nM, the GI50 (MOLT-4 leukemia) was 397 nM and the GI50 (SF-295 CNS) was 552 nM. For the same compound, the TGI (SF-295 CNS) was 2220 nM, the GI50 (SK-OV-3 ovarian) was 314 nM and the TGI (SK-OV-3 ovarian) was 16300 nM. For the same compound, the GI50 (NCI-H522 lung) was 916 nM, the TGI (NCI-H522 lung) was 5150 nM and the GI50 (SNB-19 CNS) was 3740 nM. The TGI (SNB-19 CNS) was > 38300 nM, the GI50 (ACHN renal) was 348 nM and the TGI (ACHN renal) was 13200 nM. The GI50 (HOP-62 NSCLC) was 1870 nM, the TGI (HOP-62 NSCLC) was 35900 nM and the GI50 (OVCAR-4 ovarian) was 619 nM. For the same compound, the TGI (OVCAR-4 ovarian) was > 56700 nM, the GI50 (MCF7 breast) was 933 nM and the TGI (MCF7 breast) was 4860 nM. It also gave a GI50 (KM12 colon) of 35.1 nM, a TGI (KM12 colon) of 18200 nM and a GI50 (CAKI-1 renal) of 170 nM. For the same compound, the TGI (CAKI-1 renal) was 13900 nM, the GI50 (OVCAR-3 ovarian) was 1970 nM and the TGI (OVCAR-3 ovarian) was 8440 nM. The GI50 (HL-60(TB) leukemia) was 1100 nM, the TGI (HL-60(TB) leukemia) was 3510 nM and the GI50 (M14 melanoma) was 244 nM. For the same compound, the TGI (M14 melanoma) was 4270 nM, the GI50 (HCT-15 colon) was 490 nM and the TGI (HCT-15 colon) was > 28500 nM. The GI50 (CCRF-CEM leukemia) was 366 nM, the TGI (CCRF-CEM leukemia) was 2880 nM and the GI50 (786-0 renal) was 720 nM. It also gave a TGI (786-0 renal) of 8390 nM, a GI50 (MALME-3M melanoma) of 348 nM and a TGI (MALME-3M melanoma) of 3760 nM. For the same compound, the GI50 (BT-549 breast) was 835 nM, the TGI (BT-549 breast) was 4370 nM and the GI50 (UO-31 renal) was 320 nM. The TGI (UO-31 renal) was 9340 nM, the GI50 (DU-145 prostate) was 686 nM and the TGI (DU-145 prostate) was > 34900 nM. The GI50 (COLO 205 colon) was 436 nM, the TGI (COLO 205 colon) was 6420 nM and the GI50 (OVCAR-8 ovarian) was 864 nM. The TGI (OVCAR-8 ovarian) was > 100000 nM, the GI50 (OVCAR-5 ovarian) was 3490 nM and the TGI (OVCAR-5 ovarian) was 21000 nM. It also gave a GI50 (UACC-257 melanoma) of 2120 nM, a TGI (UACC-257 melanoma) of 14700 nM and a GI50 (MDA-MB-435) of 600 nM. The TGI (MDA-MB-435) was 18100 nM, the GI50 (SN12C renal) was 379 nM and the TGI (SN12C renal) was 28900 nM. For the same compound, the GI50 (HCT-116 colon) was 377 nM, the TGI (HCT-116 colon) was 6160 nM and the GI50 (RPMI-8226 leukemia) was 441 nM. The TGI (RPMI-8226 leukemia) was 2470 nM, the GI50 (TK-10 renal) was 2980 nM and the TGI (TK-10 renal) was 17700 nM.
